Measured values as given in US5587475A, “Derivatized virginiamycin M1” (University of Notre Dame, priority 1995, dated 1996).

Tests used:
Micrococcus luteus = assay: in vivo activity, M.I.C. on M. luteus (VM1 derivatives alone, without VS1); format: cell-based; set-up: key: (+) indicates multiplication of bacteria; details: M. luteus in LBroth, 18 h at 37° C. with shaking
Protocol: The synthesized derivatives of the present invention have been tested for antibacterial activity (in solid and liquid medium), ribosome binding affinity and synergistic activity with virginiamycin S. The tests for biological activity were carried out both in vivo and in vitro. The in vivo tests were carried out using Micrococcus luteus as the test organism with the VM1 derivatives alone (without VS1). Minimum inhibitory concentrations (MIC values) were determined on agar broth plates by standard microbiological procedures, with a range of concentrations of the VM derivatives applied to the plates. The in vitro tests of the VM derivatives were performed together with VS1, and took advantage of the unique fluorescence (F) inherent in VS1. The results are summarized in the following tables, wherein the activities are compared to virginiamycin (VM1). | M. luteus in LBroth, 18 h at 37° C. with shaking. | M. luteus in LBroth, 18 h at 37° C. with shaking.

ribosomes = assay: in vitro activity: binding to free ribosomes, VS1 fluorescence with erythromycin displacement; details: together with VS1, fluorescence
Protocol: The in vivo tests were carried out using Micrococcus luteus as the test organism with the VM1 derivatives alone (without VS1). Minimum inhibitory concentrations (MIC values) were determined on agar broth plates by standard microbiological procedures, with a range of concentrations of the VM derivatives applied to the plates. The in vitro tests of the VM derivatives were performed together with VS1, and took advantage of the unique fluorescence (F) inherent in VS1. […] Using spectrofluorometry, an increase in fluorescence can be measured when ribosomes are added to a VS1 solution. Erythromycin is known to bind at the same position on the ribosome (50-S subunit) as VS1, and when it is added to the VS1 /ribosomal mixture, a decrease in fluorescence is seen. If VM1 is added to the VS1 /ribosomal/erythromycin mixture, an increase in fluorescence can be measured. Presumably, a conformational change of the ribosomes occurs upon binding of VM1, which allows VS1 to bind preferentially and releases erythromycin from the ribosomes. The VM1 derivatives would also display this type of behavior if they bind to the ribosomes.

[1] = in vitro Activity of VM1-Carboxylic Acid Derivatives
[2] = in vitro Activity of VM1-Ester Derivatives

Row | kobs (ribosomes; [1]) [s⁻¹] | t/2 (ribosomes; [1]) [s] | kobs (ribosomes; [2]) [s⁻¹] | t/2 (ribosomes; [2]) [s] | SMILES | in vivo Acitivity of VM1-Carboxylic Derivatives, M.I.C. on M. luteus (multiplication of bacteria) (Micrococcus luteus; Concentration 0.0625 μg/mL) | in vivo Acitivity of VM1-Carboxylic Derivatives, M.I.C. on M. luteus (multiplication of bacteria) (Micrococcus luteus; Concentration 0.125 μg/mL) | in vivo Acitivity of VM1-Carboxylic Derivatives, M.I.C. on M. luteus (multiplication of bacteria) (Micrococcus luteus; Concentration 0.25 μg/mL) | in vivo Activity of VM1-Ester Derivatives, M.I.C. on M. luteus (multiplication of bacteria) (Micrococcus luteus; Concentration 0.0625 μg/mL) | in vivo Activity of VM1-Ester Derivatives, M.I.C. on M. luteus (multiplication of bacteria) (Micrococcus luteus; Concentration 0.125 μg/mL) | in vivo Activity of VM1-Ester Derivatives, M.I.C. on M. luteus (multiplication of bacteria) (Micrococcus luteus; Concentration 0.25 μg/mL) | in vivo Activity of VM1-Ester Derivatives, M.I.C. on M. luteus (multiplication of bacteria) (Micrococcus luteus; Concentration 0.5 μg/mL)
1 | 0.015 | 46 |  |  | CC1=C\[C@@H](O)CC(=O)Cc2nc(co2)C(=O)N2CC[C@H](SCCCCC(=O)O)[C@H]2C(=O)O[C@H](C(C)C)[C@H](C)/C=C/C(=O)NC\C=C\1 [Carboxylic c S,R] | + | + | + |  |  |  | 
2 |  |  | 0.021 | 32.7 | CC1=C\[C@@H](O)CC(=O)Cc2nc(co2)C(=O)N2CC[C@@H](SCCC(=O)OCC(Cl)(Cl)Cl)[C@@H]2C(=O)O[C@H](C(C)C)[C@H](C)/C=C/C(=O)NC\C=C\1 [Ester b R,S] |  |  |  | + | + | + | +
3 | 0.019 | 38.7 |  |  | CC1=C\[C@@H](O)CC(=O)Cc2nc(co2)C(=O)N2CC[C@@H](SCCCCC(=O)O)[C@@H]2C(=O)O[C@H](C(C)C)[C@H](C)/C=C/C(=O)NC\C=C\1 [Carboxylic c R,S] | + | + | + |  |  |  | 
